Laboratory results reported in ChEMBL document CHEMBL2010743, “Adamantyl N-benzylbenzamide: new series of depigmentation agents with tyrosinase inhibitory activity” (Bioorg Med Chem Lett, 2012).

Key:
B16 [1] = test: Antimelanogenic activity in mouse B16 cells assessed as inhibition of melanogenesis at 1 uM; format: functional
[2] = Cytotoxicity in mouse B16 cells assessed as cell viability at 1 uM after 72 hrs; format: cell-based; settings: read-out: Activity
in vitro = settings: mouse, B16 cells
Description: Cytotoxicity in mouse B16 cells assessed as cell viability at 10 uM after 72 hrs

Tyrosinase = target: T1, Tyrosinase (Agaricus bisporus, UniProt O42713); test: Inhibition of mushroom tyrosinase
T1 sequence (O42713 whole entry): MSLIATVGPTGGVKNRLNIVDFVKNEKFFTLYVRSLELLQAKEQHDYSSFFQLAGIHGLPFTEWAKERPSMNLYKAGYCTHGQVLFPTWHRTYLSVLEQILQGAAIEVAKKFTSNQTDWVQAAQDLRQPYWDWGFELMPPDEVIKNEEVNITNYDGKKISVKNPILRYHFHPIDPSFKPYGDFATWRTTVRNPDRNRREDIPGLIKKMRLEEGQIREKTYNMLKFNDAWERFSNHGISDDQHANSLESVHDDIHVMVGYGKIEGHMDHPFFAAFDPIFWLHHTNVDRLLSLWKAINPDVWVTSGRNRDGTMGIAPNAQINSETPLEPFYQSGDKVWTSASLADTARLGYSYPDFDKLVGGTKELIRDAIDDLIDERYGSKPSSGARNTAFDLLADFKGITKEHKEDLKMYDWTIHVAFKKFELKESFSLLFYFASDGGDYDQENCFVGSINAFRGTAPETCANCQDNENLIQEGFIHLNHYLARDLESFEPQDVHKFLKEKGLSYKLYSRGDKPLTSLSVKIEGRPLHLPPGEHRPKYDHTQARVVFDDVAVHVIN

[3] = target: T2, Tyrosinase (Agaricus bisporus) (UniProt O42713); test: Inhibition of mushroom tyrosinase at 1 uM
T2 sequence (whole entry): T1 sequence (O42713 whole entry)

B16 [4] = test: cells; settings: Mus musculus
[5] = target: T2, Tyrosinase (Agaricus bisporus); test: Ratio of kojic acid IC50 to compound IC50 for mushroom tyrosinase
B16 [6] = test: Ratio of kojic acid IC50 to compound IC50 for inhibition of melanogenesis in mouse B16 cells; format: functional
B16 [7] = test: Antimelanogenic activity in mouse B16 cells assessed as inhibition of melanogenesis at 3 uM; format: functional

SMILES	IC50 (Tyrosinase) [µM]	IC50 (B16 [4]) [µM]	viability at 72 h, 10 µM (in vitro) [%]	other results
O=C(NCc1ccccc1O)c1cc(C23CC4CC(CC(C4)C2)C3)c(O)cc1O				inhibition [3]: < 5%
COc1ccc(C(=O)NCc2ccc(O)cc2O)c(O)c1	0.3	27.6	96	Ratio IC50 [5]: 30
COc1ccc(C(=O)NCc2ccc(O)cc2O)c(OC)c1	0.4	14.2	100	Ratio IC50 [5]: 30
O=C(NCc1ccc(O)cc1)c1cc(C23CC4CC(CC(C4)C2)C3)c(O)cc1O				inhibition [3]: < 5%
COc1ccc(CNC(=O)c2cc(C34CC5CC(CC(C5)C3)C4)c(O)cc2O)c(OC)c1				inhibition [3]: < 5%
O=C(NCc1ccc(O)cc1O)c1ccc(O)cc1O	0.9	26.7	100	Ratio IC50 [5]: 30
CCCCc1ccc(O)cc1O [RUCINOL]		20		

Now from value to molecule, other results behind:

IC50 (Tyrosinase) [µM]	IC50 (B16 [4]) [µM]	SMILES	viability at 72 h, 10 µM (in vitro) [%]	other results
1.4		COc1ccc(C(=O)NCc2ccc(O)cc2O)cc1C12CC3CC(CC(C3)C1)C2	44	inhibition at 1 µM (B16 [1]): < 5%; viability at 72 h, 1 µM [2]: 100%
0.9		O=C(NCc1ccc(O)cc1O)c1ccc(O)c(C23CC4CC(CC(C4)C2)C3)c1	41	inhibition at 1 µM (B16 [1]): < 5%; viability at 72 h, 1 µM [2]: 99%
0.9	1.1	COc1cc(OC)c(C23CC4CC(CC(C4)C2)C3)cc1C(=O)NCc1ccc(O)cc1O	95	Ratio IC50 (B16 [6]): 200
0.8	1.8	COc1cc(O)c(C(=O)NCc2ccc(O)cc2O)cc1C12CC3CC(CC(C3)C1)C2	100	Ratio IC50 (B16 [6]): 200
1.1		O=C(NCc1ccc(O)cc1O)c1cc(C23CC4CC(CC(C4)C2)C3)c(O)cc1O	62	inhibition at 1 µM (B16 [1]): < 5%; viability at 72 h, 1 µM [2]: 86%; inhibition at 3 µM (B16 [7]): 90%
